These results are taken from patent publication US20070015733A1, “Aryl Phosphate Derivatives of d4T having Activity Against Resistant HIV Strains” (Parker Hughes Institute, priority 1998, published 2007).

One series can be described thus: in vitro. The note with it: human. As to the method:
Percent inhibition of viral replication was calculated by comparing the p24 and RT activity values from the test substance-treated infected cells with those from untreated infected cells. In parallel, the cytotoxicity of the compounds was examined using a microculture tetrazolium assay (MTA) of cell proliferation, as described.in the Zarling, Enrice, and Uckun articles Supra).
Cellular Assays of Anti-HIV Activity and Cytotoxicity. […] Percent viral inhibition was calculated by comparing the RT activity values from the test substance-treated infected cells with RT values from untreated infected cells (i.e., virus controls).
Antiviral susceptibility assays. Phenotypic drug susceptibility studies of HIV-1 isolates and strains were performed by measuring the production of the p24 gag protein in peripheral blood mononuclear cells (PBMC) from seronegative healthy volunteers in the presence of increasing concentrations of the anti-HIV agent using the quantitative Coulter HIV-1 p24 antigen ezyme immunoassay (EIA) and HIV-1 p24 Antigen Kinetic Standard (Beckman Coulter), as previously described (Uckun, 1998, Antimicrobial Agents and Chemotherapy 37(4): 835-38). Informed consent was obtained from the blood donors according to DHHS guidelines using consent forms approved by the Institutional Review Board. In brief, PBMC were cultured for 72 h in RPMI 1640 medium (Gibco) supplemented with 20% (vol/vol) heat-inactivated fetal bovine serum, 5% human interleukin-2 (Zeptometrix), 2 mM L-glutamine, 25 mM HEPES, 2 g/L NaHCO3, 100 U/ml penicillin/streptomycin (Gibco), 50 μg/ml gentamicin (Gibco), and 5 μg/ml phytohemagglutinin-P (PHA-P) (Sigma) for 24-72 hours prior to exposure to HIV at a multiplicity of infection of 0.001-0.1 during a 1-h adsorbtion period at 37±1° C. in a humidified 5-7% CO2 atmosphere. Subsequently, cells were cultured in 96-well microtiter plates (100 μl/well; 2×10^6 cells/ml, triplicate wells) in the presence of the anti-HIV agents at 6-7 different concentrations ranging from 0.0001 μM to 100 μM, and 25 μL aliquots of culture supernatants were removed from the wells on day 6 after infection for p24 EIA, as previously described (Uckun, 1998, Antimicrobial Agents and Chemotherapy, 37(4):835-38). Controls included uninfected and untreated cells (background control) and infected but untreated (virus control) cells. The p24 EIA utilizes a murine monoclonal antibody to HIV core protein used to coat microwell strips to which the antigen present in the test culture supernatant samples binds. Percent inhibition of viral replication was calculated by comparing the p24 values from the test substance-treated infected cells with p24 values from untreated infected cells (i.e., virus controls). The IC50 values were determined using the Statview statistics program (SAS Institute, Inc.). In parallel, the effects of various treatments on cell viability were also examined as previously described (Uckun, 1998, Antimicrobial Agents and Chemotherapy, 42:383-388). In brief, noninfected PBMC were treated with each compound for 5 days under identical experimental conditions. A microculture tetrazolium assay (MTA) was performed to quantitate cellular proliferation (Uckun, 1998, Antimicrobial Agents and Chemotherapy, 42:383-388).
In parallel, the cytotoxicity of the compounds was examined using a microculture tetrazolium assay (MTA) of cell proliferation, as described (in the Zarling, Enrice, and Uckun articles Supra).

Another series deals with HIV-1 HTLVIIIB
Description: microbe, parasite or virus in culture. Put shortly: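 PHA- and IL-2-stimulated human PBMC from HIV-negative donors were infected with HIV-1 (MOI 0.001–0.1, 1 h, 37 °C) and cultured with compound (0.0001–100 μM). Supernatant p24 was measured by EIA on day 6 or 7; percent inhibition was calculated against untreated infected controls and IC50 was derived from it.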

Setting [1] is: Human immunodeficiency virus 1, PBMC.
Setting [2] is: Human immunodeficiency virus 1, read-out: IC50 HTLVIIIB
[3] abbreviates: Human immunodeficiency virus 1, PBMC, in Homo sapiens, read-out: IC50, compound 1c compared to zidovudine.
The mark [4] stands for this setting: Human immunodeficiency virus 1, PBMC, in Homo sapiens, read-out: IC90, compound 1c compared to zidovudine.

Like-named read-outs stand apart in the source and are kept apart here.

As usually defined, the IC50 is the midpoint of a concentration-inhibition curve. The IC90 is the concentration at which the effect reaches the 90% level. In the case of `Cc1cn([C@H]2C=C[C@@H](CO)O2)c(=O)[nH]c1=O` [d4T, 2′,3′-didehydro-2′,3′-dideoxythymidine], in “in vitro” (CC50, μM), the CC50 at 5 days came to 4.5 ± 1.7 µM. The IC50 at 5 days in “in vitro” (IC50 [MTA]) is more than 10000 nM. Also, the “SI(CC50/IC50)” value in the series on HIV-1 HTLVIIIB was found to be 196. The 50% inhibitory concentration (IC50) in the series on HIV-1 HTLVIIIB (setting [1]) was determined as 23 ± 8 nM; in the series on HIV-1 HTLVIIIB (setting [2]), 18 nM. This molecule also yielded an IC90 in the series with HIV-1 HTLVIIIB (setting [1]) of 1470 ± 614 nM.

In “in vitro”, `COC(=O)C(C)NP(=O)(OC[C@@H]1C=C[C@H](n2cc(C)c(=O)[nH]c2=O)O1)Oc1ccc(Br)cc1` (stereo partly drawn) [Compound 1c, d4T-5′-[p-bromo-phenylmethoxyalaninyl phosphate]] registered a CC50 at 5 days of more than 100 µM. Besides, in “in vitro”, the half-maximal inhibitory concentration (IC50) at 5 days is more than 10000 nM. For the same molecule, the IC50 in the series with HIV-1 HTLVIIIB (setting [1]), in the series with HIV-1 HTLVIIIB (setting [3]) and with HIV-1 HTLVIIIB (setting [2]) was 1 nM each time. Further, the IC90 was 52 ± 24 nM in the series on HIV-1 HTLVIIIB (setting [1]) and 45 ± 28 nM in the series with HIV-1 HTLVIIIB (setting [4]).

As to `Cc1cn([C@H]2C[C@H](N=[N+]=[N-])[C@@H](CO)O2)c(=O)[nH]c1=O` [AZT, 3′-azido-3′-deoxythymidine], the CC50 at 5 days in “in vitro” (CC50) was 0.0527 µM; in the series “in vitro” (CC50, μM) it was 95.6 ± 2.9 µM. The same molecule showed an IC50 at 5 days in “in vitro” (PBMNC IC50 [MTA]) of more than 10000 nM. In addition, in the series on HIV-1 HTLVIIIB, the “SI(CC50/IC50)” value is on record as 31,867. In addition, the figures for the IC50 in the series with HIV-1 HTLVIIIB (setting [1]), in the series with HIV-1 HTLVIIIB (setting [3]) and in the series with HIV-1 HTLVIIIB (setting [2]) were 3 ± 1 nM, 3 ± 1 nM and 4 ± 1 nM, respectively. In addition, the 90% effect concentration (IC90) in the series on HIV-1 HTLVIIIB (setting [1]) and in the series with HIV-1 HTLVIIIB (setting [4]) was 93 ± 34 nM each time.

`Cc1ccnc2c1NC(=O)c1cccnc1N2C1CC1` [nevirapine]: the CC50 at 5 days was more than 100 µM in “in vitro” (PBMC or MT-2 cells, CC50 values, data not shown) and 5.1 ± 2.3 µM in “in vitro” (peripheral blood mononuclear cells (PBMC), CC50, μM, viability of PBMC). Further, the “SI(CC50/IC50)” value in the series on HIV-1 HTLVIIIB (HTLVIIIB, PBMC) came to 213. This molecule also came in with an IC50 in the series on HIV-1 HTLVIIIB (setting [1]) of 24 ± 7 nM. For the same molecule, the IC90 with HIV-1 HTLVIIIB (setting [1]) turned out to be 1100 ± 478 nM.
